According to patent publication US6489292B1, “Stable aqueous insulin preparations without phenol and cresol” (Novo Nordisk A/S, priority 1998, dated 2002):

The compounds below were run against T1, human insulin (Homo sapiens, UniProt P01308) (assay: Chemical stability at 37° C.: covalent insulin polymer by size exclusion chromatography). Conditions: example 1, 3 mM insulin, stabiliser equimolar to insulin, 0.5 Zn2+/insulin, NaCl 15 mM, glycylglycine 7 mM, tween 20 0.01%, pH 7.5.
T1 construct: Insulin derivatives having truncations in the C-terminal of the B-chain; deamidations at A18, A21 and B3
Type: physicochemical
Method: (§1) 27.5 ml of a 21 mM insulin stock solution was made by dissolving 3.707 g zinc free human insulin in 14 ml water and adding 2888 μl of 0.1 M ZnCl2 and 7 ml water before adjusting pH to 7.5 by 0.2 M NaOH and finally adding water to 27.5 ml, calculating the specific volume of insulin as 0.7 μl/mg. The stock solution was filtrated. A preparation of 3.5 ml 15 mM insulin was then made by adding 23 μl 2.3 M stabiliser in ethanol, 49 μl 0.5 M glycylglycine and 35 μl 1% Tween 20 and water to 3.5 ml. The solution was thereafter diluted with medium containing sodium chloride 15 mM, glycylglycine 7 mM, Tween 20 0.01%, pH 7.5 to 12, 9, 6, 3 and 0.6 mM insulin and stored at 5° C. for visual inspection. The reference solution was made by the same way but without adding a stabiliser. The chemical stability of the insulin solutions were followed at 37° C. for two concentrations, 3 and 15 mM, by determination of covalent insulin polymer by size exclusion chromatography. […] Detection was performed with a tunable absorbance detector (Waters 486) at 276 nm. Injection volume were […] for 3 and 15 mM insulin solutions, respectively.
(§2) 3.26 g human insulin (0.4 equivalent Zn^2+ per insulin) was dispersed in water in 18 ml water on icebath and added 490 μl 0.5 M glycylglycine and 1628 μl sodium hydroxide (3.1 equivalent) and stirred slowly overnight at 5° C. 613 μl 0.1 M zinc chloride (0.1 equivalent of zinc) was then added the solution, pH adjusted to 7.5 by 410 μl 1 M hydrochloric acid (0.8 equivalent of chloride) and the volume adjusted to 25 ml by water. Finally the stock solution of 21 mM insulin was filtrated. 3.57 ml of the stock solution was added 50 μl 1% tween 20, 750 μl 0.1 M stabiliser and 630 μl water to obtain 5 ml 15 mM insulin formulation. Finally the preparation was diluted with medium containing sodium chloride, glycylglycine and detergent to obtain 12, 9, 6, and 3 mM of human insulin and stored at 5° C. for visual inspection. The chemical stability of 3 and 15 mM insulin solutions were followed at 37° C. by determination of covalent insulin polymer by size exclusion chromatography.

T1 sequence (P01308 25-54 limits assumed): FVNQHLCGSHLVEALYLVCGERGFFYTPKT
T1 sequence (P01308 90-110 limits assumed): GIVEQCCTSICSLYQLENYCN

Compared with CC1(C)C2CCC1(C)C(O)C2 (single isomer, unassigned; (+)) [(+)-borneol], CC1(C)[C@H]2CC[C@](C)(C2)[C@H]1O [(+)-fenchol] is higher in “Chemical stability at 37° C. (% polymer/week), insulin solution of 3 mM” value: 0.47 % polymer/week for the first, 0.50 % polymer/week for the second.

Compared with Oc1ccccc1 [phenol], CC1(C)C2CCC1(C)C(O)C2 (single isomer, unassigned; (-)) [(−)-borneol] is higher in “Chemical stability at 37° C. (% polymer/week), insulin solution of 3 mM” value: 0.37 % polymer/week for the first, 0.43 % polymer/week for the second.

Same assay, conditions: example 1, 15 mM insulin, stabiliser equimolar to insulin, 0.5 Zn2+/insulin, NaCl 15 mM, glycylglycine 7 mM, tween 20 0.01%, pH 7.5

Compared with CC1(C)C2CCC1(C)C(O)C2 (single isomer, unassigned; (+)) [(+)-borneol], CC1(C)[C@H]2CC[C@](C)(C2)[C@H]1O [(+)-fenchol] is higher in “Chemical stability at 37° C. (% polymer/week), insulin solution of 15 mM” value: 0.61 % polymer/week for the first, 0.97 % polymer/week for the second.

Going from Oc1ccccc1 [phenol] to CC1(C)C2CCC1(C)C(O)C2 (single isomer, unassigned; (-)) [(−)-borneol], the “Chemical stability at 37° C. (% polymer/week), insulin solution of 15 mM” value rises from 0.39 % polymer/week to 0.47 % polymer/week.

Same assay, conditions: example 2, 3 mM insulin, stabiliser equimolar to insulin, 0.5 Zn2+/insulin, NaCl 15 mM, glycylglycine 7 mM, tween 20 0.01%, pH 7.5

Going from Oc1ccccc1 [phenol] to c1ncc2[nH]cnc2n1 [purine], the “Chemical stability at 37° C. (% polymer/week), insulin solution of 3 mM” value rises from 0.32 % polymer/week to 0.58 % polymer/week.

For Nc1ncnc2nc[nH]c12 [adenine], the “Chemical stability at 37° C. (% polymer/week), insulin solution of 3 mM” value was 0.59 % polymer/week.

Same assay, conditions: example 2, 15 mM insulin, stabiliser equimolar to insulin, 0.5 Zn2+/insulin, NaCl 15 mM, glycylglycine 7 mM, tween 20 0.01%, pH 7.5

Going from Oc1ccccc1 [phenol] to c1ncc2[nH]cnc2n1 [purine], the “Chemical stability at 37° C. (% polymer/week), insulin solution of 15 mM” value rises from 0.29 % polymer/week to 0.71 % polymer/week.

For Nc1ncnc2nc[nH]c12 [adenine], the “Chemical stability at 37° C. (% polymer/week), insulin solution of 15 mM” value was 0.77 % polymer/week.

These compounds were tested against T1, human insulin (assay: Physical stability of insulin solution at 5° C. by visual inspection for precipitation). Conditions: example 1, stabiliser equimolar to insulin, 0.5 Zn2+/insulin, NaCl 15 mM, glycylglycine 7 mM, tween 20 0.01%, pH 7.5.
Type: physicochemical
Method: as §1, §2

First: CC1(C)C2CCC1(C)C(O)C2 (single isomer, unassigned; (+)) [(+)-borneol]
Second: CC1(C)[C@H]2CC[C@](C)(C2)[C@H]1O [(+)-fenchol]
The “Physical stability of solution at 4 weeks and 5° C.: maximal insulin concentration at which the solution was without precipitation up to 15 mM (3, 6, 9, 12, 15 mM)” value of the first is 1.7-fold lower: 9 mM for the first, 15 mM for the second.

Oc1ccccc1 [phenol] and C[C@@H]1[C@@H](O)C[C@H]2C[C@@H]1C2(C)C [(+)-isopinocampheol] are within 1.5-fold of each other in “Physical stability of solution at 4 weeks and 5° C.: maximal insulin concentration at which the solution was without precipitation up to 15 mM (3, 6, 9, 12, 15 mM)” value: 15 mM for the first, 12 mM for the second.

Going from CC1(C)C2CCC1(C)C(O)C2 (single isomer, unassigned; (-)) [(−)-borneol] to CC1C(O)CC2CC1C2(C)C (single isomer, unassigned; (-)) [(−)-isopinocampheol], the “Physical stability of solution at 4 weeks and 5° C.: maximal insulin concentration at which the solution was without precipitation up to 15 mM (3, 6, 9, 12, 15 mM)” value rises from 9 mM to 15 mM (1.7-fold).

For CC1(C)[C@H]2CC[C@H](CO)[C@@H]1C2 (relative stereo) [(−)-trans-myrtanol], the “Physical stability of solution at 4 weeks and 5° C.: maximal insulin concentration at which the solution was without precipitation up to 15 mM (3, 6, 9, 12, 15 mM)” value was 15 mM.

Same assay, conditions: example 2, stabiliser equimolar to insulin, 0.5 Zn2+/insulin, NaCl 15 mM, glycylglycine 7 mM, tween 20 0.01%, pH 7.5

Oc1ccccc1 [phenol] and c1ncc2[nH]cnc2n1 [purine] are the same in “Physical stability of solution at 4 weeks and 5° C.: maximal insulin concentration at which the solution was without precipitation up to 15 mM (3, 6, 9, 12, 15 mM)” value: 15 mM for the first, 15 mM for the second.

For Nc1ncnc2nc[nH]c12 [adenine], the “Physical stability of solution at 4 weeks and 5° C.: maximal insulin concentration at which the solution was without precipitation up to 15 mM (3, 6, 9, 12, 15 mM)” value was 9 mM.
